According to patent US11084826B2, “RSV antiviral pyrazolo- and triazolo-pyrimidine compounds” (Janssen Sciences Ireland Unlimited Company, priority 2015, dated 2021):

System: rgRSV224 virus
Test: Antiviral activity: inhibition of rgRSV224 (GFP-expressing RSV) replication in HeLa cells, GFP expression read-out
Type: cell-based, respiratory syncytial virus (RSV)
Details: human respiratory syncytial virus, HeLa, read-out: RSV HELA pEC50, rgRSV224 virus (MOI=1) in HeLa cells, GFP read-out (converted)
How it was run: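 HeLa cells (3,000/well) were infected with GFP-expressing rgRSV224 (MOI=1) in the presence of 9 serial 4-fold compound dilutions (0.05% DMSO) and incubated at 37° C, 5% CO2. After three days, GFP expression was measured by laser microscopy. EC50 is the concentration giving 50% inhibition of GFP expression.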

Compound | EC50 [nM]
CCc1cc(C(=O)N2CCCCCC2C)nc2cc(-c3ccc(C(N)=O)cc3)nn12 (stereo not drawn) [Compound A25] | 550
CCc1cc(C(=O)N2CCCCC[C@H]2C)nc2cc(-c3ccc(C(N)=O)cc3)nn12 [Compound A26] | 195
CCc1cc(C(=O)N2CCCC[C@H]2C)nc2cc(-c3ccc(C(N)=O)cc3)nn12 [Compound A27] | 871
CCCC(C)N(C)C(=O)c1cc(CC)n2nc(-c3ccc(C(N)=O)cc3)cc2n1 (stereo not drawn) [Compound A28] | 794
CCc1cc(C(=O)N2CCCCCCC2C)nc2cc(-c3ccc(C(N)=O)cc3)nn12 (stereo not drawn) [Compound A29] | 155
CCc1cc(C(=O)N2CCCCCC2C)nc2cc(-c3ccc(NC(=O)NCC4CCCO4)cc3F)nn12 (stereo not drawn) [Compound B1] | 129
CCCC(C)N(C)C(=O)c1cc(CC)n2nc(-c3ccc(NC(=O)NCC4CCCO4)cc3F)cc2n1 (stereo not drawn) [Compound B2] | 407
CCc1cc(C(=O)N2CCCCCCC2C)nc2cc(-c3ccc(NC(=O)NCC4CCCO4)cc3F)nn12 (stereo not drawn) [Compound B3] | 79.4
CCc1cc(C(=O)N2CCCCCC2C)nc2cc(-c3ccc(NC(=O)NCC4CCCO4)cc3C)nn12 (stereo not drawn) [Compound B4] | 257
CCc1cc(C(=O)N2CCCCCC2C)nc2cc(-c3ccc(NC(=O)NCC4CCCO4)cc3)nn12 (stereo not drawn) [Compound B5] | 166
CCc1cc(C(=O)N2CCCCCC2C)nc2cc(-c3ccc(NC(=O)Nc4cccc(F)c4)cc3)nn12 (stereo not drawn) [Compound B6] | 741
CCc1cc(C(=O)N2CCCCC2C)nc2cc(-c3ccc(NC(=O)NCC4CCCO4)cc3)nn12 (stereo not drawn) [Compound B7] | 631
CCc1cc(C(=O)N2CCCCCC2C)nc2cc(-c3ccc(NC(=O)NC4CC4)cc3)nn12 (stereo not drawn) [Compound B8] | 240
CCc1cc(C(=O)N2CCCCCC2C)nc2cc(-c3ccc(NC(=O)NCC4CC4)cc3)nn12 (stereo not drawn) [Compound B9] | 501
CC1CCCCCN1C(=O)c1cc(N2CCCC2)n2nc(-c3ccc(NC(=O)NCC4CCCO4)cc3)cc2n1 (stereo not drawn) [Compound B10] | 316
CC1CCCCCN1C(=O)c1cc(N2CCCCC2)n2nc(-c3ccc(NC(=O)NCC4CCCO4)cc3)cc2n1 (stereo not drawn) [Compound B11] | 282
CC1CCCCCN1C(=O)c1cc(N(C)C2CCCCC2)n2nc(-c3ccc(NC(=O)NCC4CCCO4)cc3)cc2n1 (stereo not drawn) [Compound B12] | 191
CCc1cc(C(=O)N2CCCCCC2C)nc2cc(-c3ccc(NC(=S)NCC4CCCO4)cc3F)nn12 (stereo not drawn) [Compound B13] | 398
CCc1cc(C(=O)N2CCCCCC2C)nc2cc(-c3ccc(NC(=S)NC4CC4)cc3F)nn12 (stereo not drawn) [Compound B14] | 437
CCc1cc(C(=O)N2CCCCCC2C)nc2cc(-c3ccc(N/C(=N/C#N)NCC4CCCO4)cc3F)nn12 (stereo not drawn) [Compound B16] | 589
CCc1cc(C(=O)N2CCCCCC2C)nc2cc(-c3ccc(N/C(=N/C#N)NC4CC4)cc3F)nn12 (stereo not drawn) [Compound B17] | 407
CCc1cc(C(=O)N2CCCCCC2C)nc2cc(-c3ccc(N/C(=N/C#N)NC4CC4)cc3)nn12 (stereo not drawn) [Compound B18] | 1150
CCc1cc(C(=O)N2CCCCCC2C)nc2cc(-c3ccc(NC(=O)OCCO)cc3F)nn12 (stereo not drawn) [Compound C4] | 110
CCc1cc(C(=O)N2CCCCCC2C)nc2cc(-c3ccc(NC(=O)OCC4CCCN4C)cc3F)nn12 (stereo not drawn) [Compound C5] | 178

System: not listed separately
Test: Cytotoxicity in HeLa cells, ATP content measured with the ATPlite kit
Type: cell-based
Details: human, TOX HELA pCC50

Compound | CC50 at 3 days [nM]
CCc1cc(C(=O)N2CCCCCC2C)nc2cc(-c3ccc(C(N)=O)cc3)nn12 (stereo not drawn) [Compound A25] | > 100000
CCc1cc(C(=O)N2CCCCC[C@H]2C)nc2cc(-c3ccc(C(N)=O)cc3)nn12 [Compound A26] | > 25100
CCc1cc(C(=O)N2CCCC[C@H]2C)nc2cc(-c3ccc(C(N)=O)cc3)nn12 [Compound A27] | > 25100
CCCC(C)N(C)C(=O)c1cc(CC)n2nc(-c3ccc(C(N)=O)cc3)cc2n1 (stereo not drawn) [Compound A28] | > 25100
CCc1cc(C(=O)N2CCCCCCC2C)nc2cc(-c3ccc(C(N)=O)cc3)nn12 (stereo not drawn) [Compound A29] | > 25100
CCc1cc(C(=O)N2CCCCCC2C)nc2cc(-c3ccc(NC(=O)NCC4CCCO4)cc3F)nn12 (stereo not drawn) [Compound B1] | > 100000
CCCC(C)N(C)C(=O)c1cc(CC)n2nc(-c3ccc(NC(=O)NCC4CCCO4)cc3F)cc2n1 (stereo not drawn) [Compound B2] | > 100000
CCc1cc(C(=O)N2CCCCCCC2C)nc2cc(-c3ccc(NC(=O)NCC4CCCO4)cc3F)nn12 (stereo not drawn) [Compound B3] | > 25100
CCc1cc(C(=O)N2CCCCCC2C)nc2cc(-c3ccc(NC(=O)NCC4CCCO4)cc3C)nn12 (stereo not drawn) [Compound B4] | 55000
CCc1cc(C(=O)N2CCCCCC2C)nc2cc(-c3ccc(NC(=O)NCC4CCCO4)cc3)nn12 (stereo not drawn) [Compound B5] | > 100000
CCc1cc(C(=O)N2CCCCCC2C)nc2cc(-c3ccc(NC(=O)Nc4cccc(F)c4)cc3)nn12 (stereo not drawn) [Compound B6] | > 100000
CCc1cc(C(=O)N2CCCCC2C)nc2cc(-c3ccc(NC(=O)NCC4CCCO4)cc3)nn12 (stereo not drawn) [Compound B7] | > 100000
CCc1cc(C(=O)N2CCCCCC2C)nc2cc(-c3ccc(NC(=O)NC4CC4)cc3)nn12 (stereo not drawn) [Compound B8] | 17000
CCc1cc(C(=O)N2CCCCCC2C)nc2cc(-c3ccc(NC(=O)NCC4CC4)cc3)nn12 (stereo not drawn) [Compound B9] | > 100000
CC1CCCCCN1C(=O)c1cc(N2CCCC2)n2nc(-c3ccc(NC(=O)NCC4CCCO4)cc3)cc2n1 (stereo not drawn) [Compound B10] | > 100000
CC1CCCCCN1C(=O)c1cc(N2CCCCC2)n2nc(-c3ccc(NC(=O)NCC4CCCO4)cc3)cc2n1 (stereo not drawn) [Compound B11] | > 100000
CC1CCCCCN1C(=O)c1cc(N(C)C2CCCCC2)n2nc(-c3ccc(NC(=O)NCC4CCCO4)cc3)cc2n1 (stereo not drawn) [Compound B12] | > 100000
CCc1cc(C(=O)N2CCCCCC2C)nc2cc(-c3ccc(NC(=S)NCC4CCCO4)cc3F)nn12 (stereo not drawn) [Compound B13] | > 25100
CCc1cc(C(=O)N2CCCCCC2C)nc2cc(-c3ccc(NC(=S)NC4CC4)cc3F)nn12 (stereo not drawn) [Compound B14] | > 25100
CCc1cc(C(=O)N2CCCCCC2C)nc2cc(-c3ccc(N/C(=N/C#N)NCC4CCCO4)cc3F)nn12 (stereo not drawn) [Compound B16] | > 25100
CCc1cc(C(=O)N2CCCCCC2C)nc2cc(-c3ccc(N/C(=N/C#N)NC4CC4)cc3F)nn12 (stereo not drawn) [Compound B17] | > 25100
CCc1cc(C(=O)N2CCCCCC2C)nc2cc(-c3ccc(N/C(=N/C#N)NC4CC4)cc3)nn12 (stereo not drawn) [Compound B18] | > 25100
CCc1cc(C(=O)N2CCCCCC2C)nc2cc(-c3ccc(NC(=O)OCCO)cc3F)nn12 (stereo not drawn) [Compound C4] | > 25100
CCc1cc(C(=O)N2CCCCCC2C)nc2cc(-c3ccc(NC(=O)OCC4CCCN4C)cc3F)nn12 (stereo not drawn) [Compound C5] | 13800

System: not given
Test: not given
Details: not given

Compound | melting point [°C]
CCc1cc(C(=O)N2CCCCCC2C)nc2cc(-c3ccc(C(N)=O)cc3)nn12 (stereo not drawn) [Compound A25] | 155 to 160
CCc1cc(C(=O)N2CCCCC[C@H]2C)nc2cc(-c3ccc(C(N)=O)cc3)nn12 [Compound A26] | 160 to 165
CCc1cc(C(=O)N2CCCC[C@H]2C)nc2cc(-c3ccc(C(N)=O)cc3)nn12 [Compound A27] | 160 to 165
CCCC(C)N(C)C(=O)c1cc(CC)n2nc(-c3ccc(C(N)=O)cc3)cc2n1 (stereo not drawn) [Compound A28] | 140 to 145
CCc1cc(C(=O)N2CCCCCCC2C)nc2cc(-c3ccc(C(N)=O)cc3)nn12 (stereo not drawn) [Compound A29] | 170 to 175
CCc1cc(C(=O)N2CCCCCC2C)nc2cc(-c3ccc(NC(=O)NCC4CCCO4)cc3F)nn12 (stereo not drawn) [Compound B1] | 140
CCCC(C)N(C)C(=O)c1cc(CC)n2nc(-c3ccc(NC(=O)NCC4CCCO4)cc3F)cc2n1 (stereo not drawn) [Compound B2] | 180 to 185
CCc1cc(C(=O)N2CCCCCCC2C)nc2cc(-c3ccc(NC(=O)NCC4CCCO4)cc3F)nn12 (stereo not drawn) [Compound B3] | 195 to 200
CCc1cc(C(=O)N2CCCCCC2C)nc2cc(-c3ccc(NC(=O)NCC4CCCO4)cc3C)nn12 (stereo not drawn) [Compound B4] | 123
CCc1cc(C(=O)N2CCCCCC2C)nc2cc(-c3ccc(NC(=O)NCC4CCCO4)cc3)nn12 (stereo not drawn) [Compound B5] | 205
CCc1cc(C(=O)N2CCCCCC2C)nc2cc(-c3ccc(NC(=O)Nc4cccc(F)c4)cc3)nn12 (stereo not drawn) [Compound B6] | 260 to 265
CCc1cc(C(=O)N2CCCCC2C)nc2cc(-c3ccc(NC(=O)NCC4CCCO4)cc3)nn12 (stereo not drawn) [Compound B7] | 175 to 180
CCc1cc(C(=O)N2CCCCCC2C)nc2cc(-c3ccc(NC(=O)NC4CC4)cc3)nn12 (stereo not drawn) [Compound B8] | 240 to 245
CCc1cc(C(=O)N2CCCCCC2C)nc2cc(-c3ccc(NC(=O)NCC4CC4)cc3)nn12 (stereo not drawn) [Compound B9] | 165 to 170
CC1CCCCCN1C(=O)c1cc(N2CCCC2)n2nc(-c3ccc(NC(=O)NCC4CCCO4)cc3)cc2n1 (stereo not drawn) [Compound B10] | 228 to 230
CC1CCCCCN1C(=O)c1cc(N2CCCCC2)n2nc(-c3ccc(NC(=O)NCC4CCCO4)cc3)cc2n1 (stereo not drawn) [Compound B11] | 168 to 171
CC1CCCCCN1C(=O)c1cc(N(C)C2CCCCC2)n2nc(-c3ccc(NC(=O)NCC4CCCO4)cc3)cc2n1 (stereo not drawn) [Compound B12] | 181 to 182
CCc1cc(C(=O)N2CCCCCC2C)nc2cc(-c3ccc(NC(=S)NCC4CCCO4)cc3F)nn12 (stereo not drawn) [Compound B13] | 210 to 215
CCc1cc(C(=O)N2CCCCCC2C)nc2cc(-c3ccc(NC(=S)NC4CC4)cc3F)nn12 (stereo not drawn) [Compound B14] | 220 to 222
CCc1cc(C(=O)N2CCCCCC2C)nc2cc(-c3ccc(N/C(=N/C#N)NCC4CCCO4)cc3F)nn12 (stereo not drawn) [Compound B16] | 160 to 165
CCc1cc(C(=O)N2CCCCCC2C)nc2cc(-c3ccc(N/C(=N/C#N)NC4CC4)cc3F)nn12 (stereo not drawn) [Compound B17] | 225 to 230
CCc1cc(C(=O)N2CCCCCC2C)nc2cc(-c3ccc(N/C(=N/C#N)NC4CC4)cc3)nn12 (stereo not drawn) [Compound B18] | 222 to 223
CCc1cc(C(=O)N2CCCCCC2C)nc2cc(-c3ccc(NC(=O)OCCO)cc3F)nn12 (stereo not drawn) [Compound C4] | 175 to 180
CCc1cc(C(=O)N2CCCCCC2C)nc2cc(-c3ccc(NC(=O)OCC4CCCN4C)cc3F)nn12 (stereo not drawn) [Compound C5] | 165 to 170
